By IC50 is commonly meant the point on the concentration scale where inhibition reaches its midpoint.

Structures can show the parent of a compound that is named as a salt. Where two headings read alike, the source gives them in different places. Where only a bound is given, the exact number is not on record here.

Assay [1] concerns the target T1, glycine transporter-1 (GlyT-1) (Homo sapiens, UniProt P48067).
T1 construct: JAR cells (ATCC#HTB-144), which endogenously express GlyT-1; host or cells: JAR human choriocarcinoma cells
T1 sequence (P48067 1-706): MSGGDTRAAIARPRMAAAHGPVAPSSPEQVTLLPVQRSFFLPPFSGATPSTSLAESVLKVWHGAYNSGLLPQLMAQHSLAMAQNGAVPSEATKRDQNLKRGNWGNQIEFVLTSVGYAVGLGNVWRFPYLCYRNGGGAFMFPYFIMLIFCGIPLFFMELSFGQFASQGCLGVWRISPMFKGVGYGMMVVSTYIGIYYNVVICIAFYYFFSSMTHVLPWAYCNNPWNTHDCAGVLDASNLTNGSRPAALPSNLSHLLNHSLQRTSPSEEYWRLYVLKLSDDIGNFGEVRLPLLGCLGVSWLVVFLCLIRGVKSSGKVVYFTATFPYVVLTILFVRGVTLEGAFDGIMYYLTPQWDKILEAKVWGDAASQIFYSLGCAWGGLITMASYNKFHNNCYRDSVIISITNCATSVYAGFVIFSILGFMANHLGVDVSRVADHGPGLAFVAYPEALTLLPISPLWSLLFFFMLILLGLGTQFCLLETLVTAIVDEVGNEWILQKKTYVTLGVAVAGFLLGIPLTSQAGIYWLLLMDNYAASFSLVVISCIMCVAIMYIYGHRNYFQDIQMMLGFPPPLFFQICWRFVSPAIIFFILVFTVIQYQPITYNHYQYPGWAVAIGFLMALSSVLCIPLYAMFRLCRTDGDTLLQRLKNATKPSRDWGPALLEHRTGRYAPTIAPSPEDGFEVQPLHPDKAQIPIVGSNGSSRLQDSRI
Put plainly: [14C]glycine uptake assay in JAR cells endogenously expressing GlyT-1 (scintillation proximity). Particulars: JAR cells, [14C]glycine 5 μM, 3 hour incubation; read-out: GlyT-1 IC50. The class given is cell-based. Summed up:
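Human choriocarcinoma JAR cells (endogenous GlyT-1) attached overnight, then pre-incubated 10 min at room temperature with compound in pH 7.4 Hepes uptake buffer containing 5 mM alanine and 0.75% DMSO. Uptake of 5 μM [14C]glycine over 3 h at 37 °C read by scintillation proximity; IC50 from four-parameter fit of nine-point curves.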
(In a scintillation proximity assay essentially only radioactivity close to the scintillant gives light.)

In assay [2] the test system is cerebrospinal fluid (CSF) glycine levels. Put plainly: CSF-glycine assay after oral administration. The class given is in vivo. The note with it: rats; for change in vivo at 3 mg/kg / change in vivo at 10 mg/kg / change in vivo at 30 mg/kg / change in vivo at 100 mg/kg: Rattus norvegicus, po, read-out: % CSF Glycine Increase versus Vehicle Control. The method, then:
This study measured cerebrospinal fluid (CSF) glycine levels after oral administration of test compound. […] After the specified pretreatment time, the rats were euthanized by CO2 asphyxiation and a hypodermic needle was inserted into the cisterna magna to withdraw 50-100 μl of CSF. The CSF was diluted with deuterated-glycine as an internal standard glycine was quantified by LC/MS/MS.

Assay [3] concerns the target T2, glycine transporter-2 (GlyT-2) (Homo sapiens, UniProt Q9Y345).
T2 construct: expressed in transfected cells
T2 sequence (Q9Y345 1-797): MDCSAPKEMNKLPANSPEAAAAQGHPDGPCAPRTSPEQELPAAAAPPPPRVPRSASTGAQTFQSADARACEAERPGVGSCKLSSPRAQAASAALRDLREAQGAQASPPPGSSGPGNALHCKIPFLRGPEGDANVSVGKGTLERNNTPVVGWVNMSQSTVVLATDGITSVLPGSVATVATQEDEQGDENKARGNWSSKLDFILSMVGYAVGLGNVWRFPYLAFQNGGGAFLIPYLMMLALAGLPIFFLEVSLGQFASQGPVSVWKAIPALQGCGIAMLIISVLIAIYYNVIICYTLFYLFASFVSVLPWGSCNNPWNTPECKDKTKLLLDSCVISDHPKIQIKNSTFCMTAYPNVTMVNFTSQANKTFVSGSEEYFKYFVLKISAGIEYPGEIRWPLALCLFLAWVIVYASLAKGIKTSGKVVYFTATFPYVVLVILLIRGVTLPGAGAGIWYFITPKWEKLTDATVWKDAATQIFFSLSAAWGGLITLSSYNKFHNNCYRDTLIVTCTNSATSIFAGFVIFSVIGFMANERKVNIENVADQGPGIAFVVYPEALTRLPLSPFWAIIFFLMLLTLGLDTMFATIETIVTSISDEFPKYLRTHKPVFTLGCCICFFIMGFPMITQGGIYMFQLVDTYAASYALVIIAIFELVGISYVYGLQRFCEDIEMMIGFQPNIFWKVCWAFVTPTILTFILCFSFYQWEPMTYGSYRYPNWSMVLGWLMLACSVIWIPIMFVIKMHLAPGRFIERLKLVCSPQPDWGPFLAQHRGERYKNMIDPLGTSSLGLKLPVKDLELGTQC
The assay is described as follows: [14C]glycine uptake assay in HEK-GlyT-2 transfected cells. The class given is cell-based. Particulars: HEK-GlyT-2 cells.

Where [4] appears, read: 0.5 h, dose 10 mg/kg, pretreatment 30 mins.
Where [5] appears, read: 2 h, dose 10 mg/kg, pretreatment 120 mins.
Setting [6] is: 0.5 h, dose 30 mg/kg, pretreatment 30 mins.
The mark [7] stands for this setting: 2 h, dose 30 mg/kg, pretreatment 120 mins.
Setting [8] is: 6 h, dose 10 mg/kg, pretreatment 360 mins.

For `Cn1cc(S(=O)(=O)N2CCN(C3(CNC(=O)c4ccc(F)cc4Cl)CCC(F)(F)CC3)CC2)nn1` [compound 192, 2-Chloro-N-((4,4-difluoro-1-(4-(1-methyl-1H-1,2,3-triazol-4-ylsulfonyl)piperazin-1-yl)cyclohexyl)methyl)-4-fluorobenzamide Hydrochloride], the IC50 in assay [1] is 0.001 µM; in assay [3], greater than 75 µM. Further, the change in vivo at 3 mg/kg in assay [2] (0.5 h, pretreatment 30 mins) stood at 173%; in assay [2] (2 h, pretreatment 120 mins), 199%. For the same molecule, the change in vivo at 10 mg/kg in assay [2] (setting [4]) came to 195%; in assay [2] (setting [5]) it was 311%.
As for `Cn1cnc(S(=O)(=O)N2CCN(C3(CNC(=O)c4ccc(F)cc4F)CCC(F)(F)CC3)CC2)c1` [compound 162, N-((4,4-difluoro-1-(4-(1-methyl-1H-imidazol-4-ylsulfonyl)piperazin-1-yl)cyclohexyl)methyl)-2,4-difluorobenzamide Hydrochloride], the IC50 is 0.046 µM in assay [1] and greater than 135 µM in assay [3]. Also, the change in vivo at 10 mg/kg in assay [2] (setting [4]) is 154%; in assay [2] (setting [5]), 130%. Besides, the change in vivo at 30 mg/kg in assay [2] (setting [6]) is 178%; in assay [2] (setting [7]), 156%. Moreover, the change in vivo at 100 mg/kg came to 207% in assay [2] (0.5 h, pretreatment 30 mins) and 156% in assay [2] (2 h, pretreatment 120 mins).
With “N-((4,4-Difluoro-1-(4- (propylsulfonyl)piperazin- 1-yl)cyclohexyl)methyl)- 2,4-bis(trifluoromethyl) benzamide Hydrochloride [compound 246]”, the IC50 in assay [1] is 0.007 µM; in assay [3] it was greater than 75 µM. Also, the “% CSF Glycine Increase versus Vehicle Control” value in assay [2] (dose 10 mg/kg, pretreatment 120 mins) is listed as 191%; in assay [2] (dose 10 mg/kg, pretreatment 360 mins) it was 166%; in assay [2] (dose 30 mg/kg, pretreatment 120 mins) it was 205%; in assay [2] (dose 30 mg/kg, pretreatment 360 mins) it was 244%.
`Cn1cc(S(=O)(=O)N2CCN(C3(CNC(=O)c4ccc(C(F)(F)F)cc4Cl)CCC(F)(F)CC3)CC2)nn1` [compound 193, 2-Chloro-N-((4,4-difluoro-1-(4-(1-methyl-1H-1,2,3-triazol-4-ylsulfonyl)piperazin-1-yl)cyclohexyl)methyl)-4-(trifluoromethyl)benzamide Hydrochloride]: the IC50 in assay [1] is 0.001 µM; in assay [3], greater than 75 µM. Further, the change in vivo at 10 mg/kg in assay [2] (setting [5]) was determined as 282%; in assay [2] (setting [8]), 303%. Moreover, the change in vivo at 30 mg/kg in assay [2] (setting [7]) worked out at 279%; in assay [2] (6 h, dose 30 mg/kg, pretreatment 360 mins) it was 355%.
Consider `CC(NC(=O)c1ccc(C(F)(F)F)cc1Cl)C1(N2CCN(S(=O)(=O)c3cn(C)nn3)CC2)CCC(F)(F)CC1` (stereo not drawn) [compound 224, 2-Chloro-N-(1-(4,4-difluoro-1-(4-(1-methyl-1H-1,2,3-triazol-4-ylsulfonyl)piperazin-1-yl)cyclohexyl)ethyl)-4-(trifluoromethyl)benzamide Hydrochloride], for which the IC50 in assay [1] is 0.001 µM; in assay [3], greater than 75 µM. The change in vivo at 3 mg/kg in assay [2] (2 h, pretreatment 120 mins) is 186%. In addition, the change in vivo at 10 mg/kg in assay [2] (setting [5]) was determined as 347%.
For `Cn1cc(S(=O)(=O)N2CCN(C3(CNC(=O)c4ccc(C(F)(F)F)cc4C(F)(F)F)CCC(F)(F)CC3)CC2)nn1` [compound 221, N-((4,4-Difluoro-1-(4-(1-methyl-1H-1,2,3-triazol-4-ylsulfonyl)piperazin-1-yl)cyclohexyl)methyl)-2,4-bis(trifluoromethyl) benzamide Hydrochloride], the half-maximal inhibitory concentration (IC50) in assay [1] is 0.001 µM; in assay [3], greater than 75 µM. Further, the change in vivo at 10 mg/kg in assay [2] (setting [5]) was 226%; in assay [2] (setting [8]), 241%.
With `CC(NC(=O)c1ccc(F)cc1Cl)C1(N2CCN(S(=O)(=O)c3cn(C)nn3)CC2)CCC(F)(F)CC1` (stereo not drawn) [compound 219, 2-Chloro-N-(1-(4,4-difluoro-1-(4-(1-methyl-1H-1,2,3-triazol-4-ylsulfonyl)piperazin-1-yl)cyclohexyl)ethyl)-4-fluorobenzamide Hydrochloride], the IC50 is 0.003 µM in assay [1] and greater than 75 µM in assay [3]. Further, the change in vivo at 3 mg/kg in assay [2] (2 h, pretreatment 120 mins) was 181%. In assay [2] (setting [5]), the change in vivo at 10 mg/kg came out at 310%.
As for `CCCS(=O)(=O)N1CCN(C2(CNC(=O)c3ccc(C(F)(F)F)cc3Cl)CCC(F)(F)CC2)CC1` [compound 151, N-((4,4-Difluoro-1-(4-(propylsulfonyl)piperazin-1-yl)cyclohexyl)methyl)-2-chloro-4-(trifluoromethyl)benzamide Hydrochloride], the IC50 in assay [1] is 0.017 µM; in assay [3] it was greater than 75 µM. In addition, the change in vivo at 10 mg/kg was 209% in assay [2] (setting [4]) and 169% in assay [2] (setting [5]). Moreover, the figures for the change in vivo at 30 mg/kg in assay [2] (setting [6]) and in assay [2] (setting [7]) were 221% and 249%, respectively. Also, the change in vivo at 100 mg/kg was 204% in assay [2] (0.5 h, pretreatment 30 mins) and 238% in assay [2] (2 h, pretreatment 120 mins).
As to `CC(O)CS(=O)(=O)N1CCN(C2(CNC(=O)c3ccc(C(F)(F)F)cc3Cl)CCC(F)(F)CC2)CC1` (stereo not drawn) [compound 252, 2-Chloro-N-((4,4-difluoro-1-(4-(2-hydroxypropylsulfonyl)piperazin-1-yl)cyclohexyl)methyl)-4-(trifluoromethyl)benzamide Hydrochloride], the IC50 in assay [1] was 0.033 µM; in assay [3] it was greater than 75 µM. Moreover, the change in vivo at 30 mg/kg in assay [2] (setting [7]) was found to be 207%.
Turning to `Cn1cnc(S(=O)(=O)N2CCN(C3(CNC(=O)c4c(F)cccc4F)CCC(F)(F)CC3)CC2)c1` [compound 163, N-((4,4-Difluoro-1-(4-(1-methyl-1H-imidazol-4-ylsulfonyl)piperazin-1-yl)cyclohexyl)methyl)-2,6-difluorobenzamide Hydrochloride], the IC50 in assay [1] turned out to be 0.018 µM; in assay [3] it was 74.9 µM. Moreover, the change in vivo at 10 mg/kg came out at 123% in assay [2] (setting [4]) and 132% in assay [2] (setting [5]). For the same molecule, the values for the change in vivo at 30 mg/kg in assay [2] (setting [6]) and in assay [2] (setting [7]) were 202% and 215%, respectively. Besides, the change in vivo at 100 mg/kg in assay [2] (0.5 h, pretreatment 30 mins) was found to be 280%; in assay [2] (2 h, pretreatment 120 mins) it was 221%.

For the origin of these results see US9045445B2, “Glycine transporter-1 inhibitors, methods of making them, and uses thereof” (Albany Molecular Research, Inc., priority 2010, dated 2015).
